Test system: blood pressure of subjects
Assay: Effect of multiple administration of MN-08 on blood pressure of subjects (3 days)
Assay type: in vivo, human
Source text: All subjects in the following embodiments have signed informed consent forms, which comply with medical ethics regulations. According to the relevant provisions of Chinese Guidelines for the Prevention and Treatment of Hypertension (2018 Revision), the values measured for hypertension are the average blood pressure measured three times on a different day without the use of antihypertensive drugs. Therefore, in this embodiment, the baseline blood pressure of the subjects before administration is set as the average blood pressure measured at three different times: screening period, occupancy period, and 1 hour before administration, as shown in Tables 1 to 3.
Multiple dosing trials: Participants in each dose group fasted for at least 10 hours before administration, without water deprivation overnight. Each group of subjects took the test drug orally on an empty stomach twice a day (with an interval of 12 hours and at least 1 hour on an empty stomach before the second administration). The first administration time every day is around 8 am, taken with 240 mL of water. Taking subjects 15-17 as an example, the effect of multiple doses of MN-08 (3 days) on subjects' blood pressure was investigated.

Q: Which DP (Subject 15, 12 mg twice a day, D 1, 2 hrs after 2nd adm., baseline 75 mmHg) does the source give for `CCC12CC3CC(N)(C1)CC(CO[N+](=O)[O-])(C3)C2` (stereo not shown) [MN-08] here?
A: 59 mmHg

Q: And the SP (Subject 15, 12 mg twice a day, D 1, 2 hrs after 2nd adm., baseline 108 mmHg)?
A: 94 mmHg

Q: What about the DP (Subject 15, 12 mg twice a day, D 1, 4 hrs after 1st adm., baseline 75 mmHg) of the same compound?
A: 61 mmHg

Q: And the SP (Subject 15, 12 mg twice a day, D 1, 4 hrs after 1st adm., baseline 108 mmHg)?
A: 96 mmHg

Q: And the DP (Subject 15, 12 mg twice a day, D 1, 8 hrs after 1st adm., baseline 75 mmHg)?
A: 51 mmHg

Q: And the SP (Subject 15, 12 mg twice a day, D 1, 8 hrs after 1st adm., baseline 108 mmHg)?
A: 100 mmHg

Q: What about the DP (Subject 15, 12 mg twice a day, D 2, 2 hrs after 2nd adm., baseline 75 mmHg) of the same compound?
A: 64 mmHg

Q: And the SP (Subject 15, 12 mg twice a day, D 2, 2 hrs after 2nd adm., baseline 108 mmHg)?
A: 95 mmHg

Q: And the DP (Subject 15, 12 mg twice a day, D 2, 4 hrs after 1st adm., baseline 75 mmHg)?
A: 56 mmHg

Q: What about the SP (Subject 15, 12 mg twice a day, D 2, 4 hrs after 1st adm., baseline 108 mmHg) of the same compound?
A: 92 mmHg

Q: What about the DP (Subject 15, 12 mg twice a day, D 2, 8 hrs after 1st adm., baseline 75 mmHg) of the same compound?
A: 57 mmHg

Q: And the SP (Subject 15, 12 mg twice a day, D 2, 8 hrs after 1st adm., baseline 108 mmHg)?
A: 108 mmHg

Q: And the DP (Subject 15, 12 mg twice a day, D 3, 2 hrs after 2nd adm., baseline 75 mmHg)?
A: 65 mmHg

Q: What about the SP (Subject 15, 12 mg twice a day, D 3, 2 hrs after 2nd adm., baseline 108 mmHg) of the same compound?
A: 105 mmHg

Q: And the DP (Subject 15, 12 mg twice a day, D 3, 4 hrs after 1st adm., baseline 75 mmHg)?
A: 64 mmHg

Q: And the SP (Subject 15, 12 mg twice a day, D 3, 4 hrs after 1st adm., baseline 108 mmHg)?
A: 95 mmHg

Q: What about the DP (Subject 15, 12 mg twice a day, D 3, 8 hrs after 1st adm., baseline 75 mmHg) of the same compound?
A: 57 mmHg

Q: And the SP (Subject 15, 12 mg twice a day, D 3, 8 hrs after 1st adm., baseline 108 mmHg)?
A: 86 mmHg

Q: What about the DP (Subject 16, 24 mg twice a day, D 1, 2 hrs after 2nd adm., baseline 81 mmHg) of the same compound?
A: 66 mmHg

Q: What about the SP (Subject 16, 24 mg twice a day, D 1, 2 hrs after 2nd adm., baseline 118 mmHg) of the same compound?
A: 103 mmHg

Q: And the DP (Subject 16, 24 mg twice a day, D 1, 4 hrs after 1st adm., baseline 81 mmHg)?
A: 61 mmHg

Q: What about the SP (Subject 16, 24 mg twice a day, D 1, 4 hrs after 1st adm., baseline 118 mmHg) of the same compound?
A: 97 mmHg

Q: And the DP (Subject 16, 24 mg twice a day, D 1, 8 hrs after 1st adm., baseline 81 mmHg)?
A: 63 mmHg

Q: And the SP (Subject 16, 24 mg twice a day, D 1, 8 hrs after 1st adm., baseline 118 mmHg)?
A: 102 mmHg

Q: And the DP (Subject 16, 24 mg twice a day, D 2, 2 hrs after 2nd adm., baseline 81 mmHg)?
A: 61 mmHg

Q: And the SP (Subject 16, 24 mg twice a day, D 2, 2 hrs after 2nd adm., baseline 118 mmHg)?
A: 100 mmHg

Q: And the DP (Subject 16, 24 mg twice a day, D 2, 4 hrs after 1st adm., baseline 81 mmHg)?
A: 69 mmHg

Q: And the SP (Subject 16, 24 mg twice a day, D 2, 4 hrs after 1st adm., baseline 118 mmHg)?
A: 106 mmHg

Q: What about the DP (Subject 16, 24 mg twice a day, D 2, 8 hrs after 1st adm., baseline 81 mmHg) of the same compound?
A: 65 mmHg

Q: What about the SP (Subject 16, 24 mg twice a day, D 2, 8 hrs after 1st adm., baseline 118 mmHg) of the same compound?
A: 99 mmHg

Q: What about the DP (Subject 16, 24 mg twice a day, D 3, 2 hrs after 2nd adm., baseline 81 mmHg) of the same compound?
A: 69 mmHg

Q: What about the SP (Subject 16, 24 mg twice a day, D 3, 2 hrs after 2nd adm., baseline 118 mmHg) of the same compound?
A: 98 mmHg

Q: What about the DP (Subject 16, 24 mg twice a day, D 3, 4 hrs after 1st adm., baseline 81 mmHg) of the same compound?
A: 67 mmHg

Q: And the SP (Subject 16, 24 mg twice a day, D 3, 4 hrs after 1st adm., baseline 118 mmHg)?
A: 107 mmHg

Q: And the DP (Subject 16, 24 mg twice a day, D 3, 8 hrs after 1st adm., baseline 81 mmHg)?
A: 63 mmHg

Q: And the SP (Subject 16, 24 mg twice a day, D 3, 8 hrs after 1st adm., baseline 118 mmHg)?
A: 95 mmHg

Q: What about the DP (Subject 17, 24 mg twice a day, D 1, 2 hrs after 2nd adm., baseline 87 mmHg) of the same compound?
A: 73 mmHg

Q: And the SP (Subject 17, 24 mg twice a day, D 1, 2 hrs after 2nd adm., baseline 126 mmHg)?
A: 107 mmHg

Q: And the DP (Subject 17, 24 mg twice a day, D 1, 4 hrs after 1st adm., baseline 87 mmHg)?
A: 81 mmHg

Q: And the SP (Subject 17, 24 mg twice a day, D 1, 4 hrs after 1st adm., baseline 126 mmHg)?
A: 126 mmHg

Q: What about the DP (Subject 17, 24 mg twice a day, D 1, 8 hrs after 1st adm., baseline 87 mmHg) of the same compound?
A: 66 mmHg

Q: What about the SP (Subject 17, 24 mg twice a day, D 1, 8 hrs after 1st adm., baseline 126 mmHg) of the same compound?
A: 112 mmHg

Q: And the DP (Subject 17, 24 mg twice a day, D 2, 2 hrs after 2nd adm., baseline 87 mmHg)?
A: 63 mmHg

Q: And the SP (Subject 17, 24 mg twice a day, D 2, 2 hrs after 2nd adm., baseline 126 mmHg)?
A: 94 mmHg

Q: And the DP (Subject 17, 24 mg twice a day, D 2, 4 hrs after 1st adm., baseline 87 mmHg)?
A: 73 mmHg

Q: And the SP (Subject 17, 24 mg twice a day, D 2, 4 hrs after 1st adm., baseline 126 mmHg)?
A: 102 mmHg

Q: What about the DP (Subject 17, 24 mg twice a day, D 2, 8 hrs after 1st adm., baseline 87 mmHg) of the same compound?
A: 68 mmHg

Q: What about the SP (Subject 17, 24 mg twice a day, D 2, 8 hrs after 1st adm., baseline 126 mmHg) of the same compound?
A: 115 mmHg

Q: And the DP (Subject 17, 24 mg twice a day, D 3, 2 hrs after 2nd adm., baseline 87 mmHg)?
A: 74 mmHg

Q: What about the SP (Subject 17, 24 mg twice a day, D 3, 2 hrs after 2nd adm., baseline 126 mmHg) of the same compound?
A: 110 mmHg

Q: What about the DP (Subject 17, 24 mg twice a day, D 3, 4 hrs after 1st adm., baseline 87 mmHg) of the same compound?
A: 70 mmHg

Q: And the SP (Subject 17, 24 mg twice a day, D 3, 4 hrs after 1st adm., baseline 126 mmHg)?
A: 107 mmHg

Q: What about the DP (Subject 17, 24 mg twice a day, D 3, 8 hrs after 1st adm., baseline 87 mmHg) of the same compound?
A: 76 mmHg

Q: What about the SP (Subject 17, 24 mg twice a day, D 3, 8 hrs after 1st adm., baseline 126 mmHg) of the same compound?
A: 111 mmHg

Q: And the “effect on blood pressure of the subjects” value (continuous administration for 3 days, twice a day, 12 mg and 24 mg groups, decrease in diastolic greater than in systolic pressure)?
A: can lower the blood pressure
